Assay results from patent publication US20230242553A1, “PROCESS FOR THE PREPARATION OF 1-METHYL-6-[6-R2-5-METHYL-8-(METHYLAMINO)-4-[ (3AS,6AS)-5-METHYL-2,3,3A,4,6,6A-HEXAHYDROPYRROLO[2,3-C]PYRROL-1-YL]-9H-PYRIDO[2,3-B]INDOL-3-YL]-4-OXO-1,8-NAPHTHYRIDINE-3-CARBOXYLIC ACID HYDROCHLORIDE” (Hoffmann-La Roche Inc., priority 2020, published 2023).
Counter-ions that a name gives are not always drawn.

Assay: Stability experiment of final compound: solid in sealed vial kept in oven, purity checked by UPLC
Type: physicochemical
Details: for Stability Result Solid at 20° C./7day (purity) / Stability Result Solid at 100° C./1 day (purity): 10 mg solid in 4 mL vial with sealed cap; for Stability Result Solid at 20° C./7day (purity): 7 days; for Stability Result Solid at 20° C./7day (purity) / Stability Result Solid at 100° C./1 day (purity) / Initial Purity: purity by UPLC; for Stability Result Solid at 100° C./1 day (purity): oven 100° C.; for Stability of HCl salt compared with freebase form: conclusion in words from Table 2; for Initial Purity: solid before storage
Source text: Stability Experiment of Final Compound of Formula (I)
Freebase of Example 4: 6-[5-cyano-6-fluoro-8-(methylamino)-4-[(3aS,6aS)-5-methyl-2,3,3a,4,6,6a-hexahydropyrrolo[2,3-c]pyrrol-1-yl]-9H-pyrido[2,3-b]indol-3-yl]-1-methyl-4-oxo-1,8-naphthyridine-3-carboxylic acid; initial purity: 99.16%
HCl salt compound (Example 4): 6-[5-cyano-6-fluoro-8-(methylamino)-4-[(3aS,6aS)-5-methyl-2,3,3a,4,6,6a-hexahydropyrrolo[2,3-c]pyrrol-1-yl]-9H-pyrido[2,3-b]indol-3-yl]-1-methyl-4-oxo-1,8-naphthyridine-3-carboxylic acid; hydrochloride; initial purity: 98.50%
Freebase of Example 8: 6-[5,6-difluoro-8-(methylamino)-4-[(3aS,6aS)-5-methyl-2,3,3a,4,6,6a-hexahydropyrrolo[2,3-c]pyrrol-1-yl]-9H-pyrido[2,3-b]indol-3-yl]-1-methyl-4-oxo-1,8-naphthyridine-3-carboxylic acid; initial purity: 97.96%
HCl salt compound (Example 8): 6-[5,6-difluoro-8-(methylamino)-4-[(3aS,6aS)-5-methyl-2,3,3a,4,6,6a-hexahydropyrrolo[2,3-c]pyrrol-1-yl]-9H-pyrido[2,3-b]indol-3-yl]-1-methyl-4-oxo-1,8-naphthyridine-3-carboxylic acid; hydrochloride; initial purity: 97.80%
Condition: 10 mg of compound in 4 mL vial with sealed cap. Keep in oven at certain temperature for certain days. Then, the purity of solid was checked by UPLC.

| Stability Result Solid at 20° C./7day (purity) (dihydrochloride) | Stability Result Solid at 100° C./1 day (purity) (dihydrochloride) | Stability of HCl salt compared with freebase form | Initial Purity | Stability Result Solid at 20° C./7day (purity) | Stability Result Solid at 100° C./1 day (purity) | Compound |
| --- | --- | --- | --- | --- | --- | --- |
| 97.78% | 97.77% | much more stable than its freebase form | 97.80% |  |  | CNc1cc(F)c(F)c2c1[nH]c1ncc(-c3cnc4c(c3)c(=O)c(C(=O)O)cn4C)c(N3CC[C@H]4CN(C)C[C@H]43)c12 [HCl salt compound (Example 8), 6-[5,6-Difluoro-8-(methylamino)-4-[(3aS,6aS)-5-methyl-2,3,3a,4,6,6a-hexahydropyrrolo[2,3-c]pyrrol-1-yl]-9H-pyrido[2,3-b]indol-3-yl]-1-methyl-4-oxo-1,8-naphthyridine-3-carboxylic acid; dihydrochloride] |
|  |  |  | 99.16% | 95.73% | 93.35% | CNc1cc(F)c(C#N)c2c1[nH]c1ncc(-c3cnc4c(c3)c(=O)c(C(=O)O)cn4C)c(N3CC[C@H]4CN(C)C[C@H]43)c12 [Freebase of Example 4, 6-[5-cyano-6-fluoro-8-(methylamino)-4-[(3aS,6aS)-5-methyl-2,3,3a,4,6,6a-hexahydropyrrolo[2,3-c]pyrrol-1-yl]-9H-pyrido[2,3-b]indol-3-yl]-1-methyl-4-oxo-1,8-naphthyridine-3-carboxylic acid] |
| 98.67% | 98.48% | much more stable than its freebase form | 98.50% |  |  | CNc1cc(F)c(C#N)c2c1[nH]c1ncc(-c3cnc4c(c3)c(=O)c(C(=O)O)cn4C)c(N3CC[C@H]4CN(C)C[C@H]43)c12 [HCl salt compound (Example 4), 6-[5-Cyano-6-fluoro-8-(methylamino)-4-[(3aS,6aS)-5-methyl-2,3,3a,4,6,6a-hexahydropyrrolo[2,3-c]pyrrol-1-yl]-9H-pyrido[2,3-b]indol-3-yl]-1-methyl-4-oxo-1,8-naphthyridine-3-carboxylic acid; dihydrochloride] |
|  |  |  | 97.96% | 96.72% | 91.08% | CNc1cc(F)c(F)c2c1[nH]c1ncc(-c3cnc4c(c3)c(=O)c(C(=O)O)cn4C)c(N3CC[C@H]4CN(C)C[C@H]43)c12 [Freebase of Example 8, 6-[5,6-difluoro-8-(methylamino)-4-[(3aS,6aS)-5-methyl-2,3,3a,4,6,6a-hexahydropyrrolo[2,3-c]pyrrol-1-yl]-9H-pyrido[2,3-b]indol-3-yl]-1-methyl-4-oxo-1,8-naphthyridine-3-carboxylic acid] |
